Measured values published in PubChem BioAssay AID652241 (Broad Institute, 2013).
Inconclusive results are not listed. Active and inactive are the calls of the source.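 Rule for the calls: active = fitted curve reaches activity 50 in the expected rising direction at or below the top valid tested dose; inconclusive = no clear call, values can overlap the other calls; inactive = activity in the wrong direction, and the rest.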

molecular target: Virion infectivity factor (Human immunodeficiency virus type 1 group M subtype B (isolate BH10)) + Virion infectivity factor (Human immunodeficiency virus type 1 group M subtype B (isolate BRU/LAI)) + Virion infectivity factor (Human immunodeficiency virus type 1 group M subtype B (isolate PCV12)) + Virion infectivity factor (Human immunodeficiency virus type 1 group M subtype B (isolate HXB2)) (UniProt P69720+P69721+P69722+P69723); assay: Vif multimerization inhibitor potency, dose response, imaging, HEK293T, cherry-picks (AID 652241); settings: 24 h;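 note: imaged cell signal that rises when Vif self-association is disrupted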

Structure (SMILES)	AC50
COC(=O)c1ccc(NCc2cc(O)ccc2O)cc1	5.96 µM
COc1cc(C2c3cc4c(cc3CC3COC(=O)C32)OCO4)cc(OC)c1OC (stereo unspecified)	9.81 µM
Cn1c(=O)[nH]c(=O)c2c1nc([N+](=O)[O-])n2Cc1ccccc1	5.03 µM
Nc1c(C(=O)Nc2nc3ccccc3s2)sc2nc(-c3cccs3)ccc12	7.57 µM
COc1cc(NC(=O)c2ccc(-c3csc(C)n3)cc2)c(OC)cc1Cl	10.3 µM
COc1ccc2nc(N3C(=O)C(O)=C(C(=O)c4ccco4)C3c3ccccc3OC)sc2c1 (stereo unspecified)	> 19.5 µM (inactive)
CC(C)OC(=O)c1ccc(NCc2cc(O)ccc2O)cc1Cl	5 µM
COc1cccc(NC(=O)NC2(C(F)(F)F)Oc3ccccc3O2)c1	> 19.5 µM (inactive)
Cc1nc(-c2ccc(O)c(O)c2)cs1	> 19.5 µM (inactive)
CCN(CC)C(=O)c1sc2nc(-c3cccs3)cc(-c3cccs3)c2c1N	> 19.5 µM (inactive)
COc1cc(-c2cnc3c(NC=O)cc(-c4ccccc4)cn23)cc(OC)c1OC	2.45 µM
CC(=O)Nc1ccc(NC(=O)COc2ccccc2C(=O)Nc2cccc(Cl)c2Cl)cc1	5.9 µM
COc1ccc(-c2nc3cnccn3c2NC2CCCCC2)cc1-c1cccc(Cl)c1	14.5 µM
CC(=O)Nc1ccc(-c2ccnc3c2CC(C(=O)NCc2ccccc2)O3)cc1 (stereo unspecified)	1.28 µM
CCc1ccc2[nH]c3nc(SCC(=O)NNC(=O)c4ccc(C(C)(C)C)cc4)nnc3c2c1	7.22 µM
COc1ccc(-n2nc(C(=O)NCC(=O)Nc3cccc(Cl)c3)c3ccccc3c2=O)cc1OC	8.05 µM
COc1ccccc1C1C2=C(COC2=O)Nc2cc3c(cc21)OCO3 (stereo unspecified)	1.99 µM
COc1cc(-c2cc(=O)c3c(O)c(OC)c(OC)c(O)c3o2)ccc1O	> 19.5 µM (inactive)
CCN(CC)c1ccc2cc(C(N)=O)c(=O)oc2c1	> 19.5 µM (inactive)
C=CCn1c(O)c(C2=c3ccccc3=NC2=O)s/c1=N/c1nccs1	> 19.5 µM (inactive)
COc1ccc(NC(=O)C2(C)Cc3c(-c4cccc(NC(C)=O)c4)ccnc3O2)cn1 (stereo unspecified)	8.99 µM
COc1ccc(S(=O)(=O)Nc2cc3c(C(C)=O)c(C)oc3c3ccccc23)cc1	9.23 µM
Cc1cc(C)cc(NC(=O)CCc2nc3sc4c(c3c(=O)[nH]2)CCCC4)c1	14.6 µM
CCCSc1ccc2nc(NC(=O)OC)[nH]c2c1	15.4 µM
CCc1ccc(S(=O)(=O)Nc2ccc(-c3ccc4nnc(C)n4n3)cc2)s1	11.4 µM
COc1cccc(-c2cc(NC=O)c3ncc(-c4cc(OC)c(OC)c(OC)c4)n3c2)c1	4.25 µM

same assay, conditions: 24 h, at 2.1 µM (top of the series)

Structure (SMILES)	activity, higher = inhibition
COc1ccc(/C=C2\CN(Cc3ccccc3)C/C(=C\c3ccc(OC)c(O)c3)C2=O)cc1O	inactive

same assay, conditions: 24 h, at 6.8 µM (top of the series)

Structure (SMILES)	activity, higher = inhibition
COc1ccc(OC)c(NC(=O)c2cc3ccccc3cc2OC)c1	inactive
COc1ccc(C(=O)c2sc3nc(C)cc(-c4cccs4)c3c2N)cc1OC	inactive
COc1ccc(-c2nc(CS(=O)(=O)CC(=O)NCCc3ccccc3)c(C)o2)cc1	inactive

same assay, conditions: 24 h, at 19.5 µM (top of the series)

Structure (SMILES)	activity, higher = inhibition
CCN1C(=O)c2cccc3c(S(=O)(=O)Nc4ccccc4O)ccc1c23	inactive
O=C1c2ccccc2C(Nc2ccc(S(=O)(=O)N3CCOCC3)cc2)N1c1ccccn1 (stereo unspecified)	inactive
CCn1c(SCc2nc3ccccc3c(=O)[nH]2)nc2ccccc2c1=O	inactive
CCOc1ccc(C(C)=O)cc1COC(=O)c1cc([N+](=O)[O-])ccc1N1CCOCC1	inactive
CC(OC(=O)c1c[nH]c2ccccc12)C(=O)N1CCCC1 (stereo unspecified)	inactive
COc1ccc(CN(CC(=O)NC2CCCC2)C(=O)CN2C(=O)COc3ccccc32)cc1	inactive
O=C(c1ccc(Cl)c(Cl)c1)N(Cc1ccco1)c1ccc(O)cc1	inactive
CC(C)C(=O)N=C1SC2CS(=O)(=O)CC2N1Cc1ccccc1 (stereo unspecified)	inactive
Cc1cc(NS(=O)(=O)c2ccc(NC(=O)c3ccc(Cl)cc3Cl)cc2)no1	inactive
CN(Cc1ccccc1)C(=O)CCC1CCN(C(=O)c2ccco2)CC1	inactive
O=S(=O)(Nc1nc2ccccc2nc1NCc1ccco1)c1ccc(Cl)cc1	inactive
O=C(CCN1CCOCC1)Nc1ccc(Cl)cc1	inactive
CCN(C(=O)COc1ccc(C)cc1OC)c1cccc2ccccc12	inactive
Nc1nonc1-c1nc2ccccc2n1CC(=O)NC1CCCC1	inactive
O=C(O)c1ccc(-c2nc(-c3cccc(C(F)(F)F)c3)cs2)cc1	inactive
Cc1nn(C)cc1CN(C)Cc1ccc(OCC(O)CN2CCCCC2)cc1 (stereo unspecified)	inactive
N#Cc1c2ccc(OCC(N)=O)cc2n2ccccc12	inactive
CC(O)CN(C)CC/C=C1/c2ccccc2CSc2ccccc21 (stereo unspecified)	inactive
COc1ccc(CNC(=O)COC(=O)c2cc(S(=O)(=O)N3CCOCC3)ccc2O)cc1OC	inactive
COc1ccc(CN(C(=O)Cn2nnc(-c3ccc(C)o3)n2)C(C(=O)NCC2CCCO2)c2ccco2)cc1 (stereo unspecified)	inactive
CCOC(=O)C1(Cc2cccc(OC)c2)CCN(CCO)CC1	inactive
Cc1cccc(C)c1NC(=O)COc1ccc2c(C)c(Cc3ccccc3)c(=O)oc2c1C	inactive

Structure (SMILES)	activity, higher = inhibition
O=C1/C(=C/c2ccc(N3CCCC3)cc2)NC(=S)N1C1CC1	inactive
COc1ccc(N=C2NC(=O)S/C2=C\c2ccc(N(C)C)cc2)cc1	inactive
O=C(c1cc(COc2cccc3cccnc23)on1)N1CCC[C@H]1CO	inactive
CNC(=O)c1ccc(NC(=O)c2cc(S(=O)(=O)N(C)C)ccc2N2CCCC2)cc1	inactive
Cc1cccc(N2CCN(C(=O)c3cc4ccccc4oc3=O)CC2)c1C	inactive
CC1Cc2ccccc2N1C(=O)COC(=O)c1ccccc1NCCO (stereo unspecified)	inactive
COc1cc(C(=O)NCCc2cn3ccc(C)cc3n2)cc(OC)c1OC	inactive
O=C(CCc1ccccc1)Nc1ccccc1	inactive
Cc1nnc(NC(=O)CSc2nnc(NC(=O)C(C)(C)C)s2)s1	inactive
O=c1sc(N2CCN(c3ccc(F)cc3)CC2)nc2ccsc12	inactive
COc1ccccc1Oc1coc2cc(OCC(N)=O)ccc2c1=O	inactive
O=C(c1cc(Cl)c(=O)n(Cc2ccccc2)c1)N1CCOCC1	inactive
COc1ccc(CNC(=O)Nc2cccs2)cc1OC	inactive
Cc1ccc2c(c1)C1CN(C)CCC1N2S(=O)(=O)c1cccc(C(F)(F)F)c1 (stereo unspecified)	inactive
O=C(c1ccc2c(c1)OCO2)N(CC1CCCO1)C1(C(=O)NC2CCCC2)CCCCC1 (stereo unspecified)	inactive
CC(C)(C)NC(=O)NC(=O)COc1ccccn1	inactive
O=C(Nc1ccc2c(c1)nc1n2CCOC1)c1ccccc1	inactive
COc1ccccc1NC(=O)c1ccccc1NC(=O)c1ccccn1	inactive
Cc1ccc(-n2nnc3c(=O)n(CC(=O)OCc4ccccc4)cnc32)cc1	inactive
O=C(NNC(=O)c1cc2ccccc2oc1=O)c1ccccc1	inactive
COc1ccc(-c2csc(-c3cccnc3)n2)cc1C	inactive
COc1cccc(N2CCN(S(=O)(=O)c3cc4c(cc3C)N(C)CCO4)CC2)c1	inactive

Structure (SMILES)	activity, higher = inhibition
CCn1c(CC(=O)Nc2ccccc2)nnc1SCC(=O)Nc1nnc(C)s1	inactive
COc1ccccc1CNC(=O)CSC1=NCCS1	inactive
COc1cc(/C=C/C(=O)OCC(=O)N2CCCc3ccccc32)ccc1O	inactive
COc1ccccc1Nc1nnc(C)c(=O)[nH]1	inactive
CCN1c2ccccc2NC2C1C(C(C)=O)C(=O)N2c1ccc(Cl)cc1 (stereo unspecified)	inactive
COC(=O)c1cc(Cl)c(NC(=O)c2cc3ccccc3o2)cc1OC	inactive
Cc1ccc(S(=O)(=O)c2nc(-c3ccccc3Cl)oc2N(C)C2CCN(C)CC2)cc1	inactive
NS(=O)(=O)c1ccc(NC(=O)CCC(=O)N2CCOCC2)cc1	inactive
CCOC(=O)Cc1csc(NC(=O)CSc2nnnn2-c2ccc(CC)cc2)n1	inactive
Cc1ccc(S(=O)(=O)NC(=O)Nn2c(C)nnc2C)cc1	inactive
CCn1c(SCc2ccc(C(=O)Nc3nccs3)cc2)nnc1-c1ccc(N)cc1	inactive
Cc1cc(C(=O)Nc2c(F)c(F)c(F)c(F)c2F)n(-c2ccccc2)n1	inactive
CCC(C)C(=O)Nn1c(C2CC2)nc2cc(OC)c(OC)cc2c1=O (stereo unspecified)	inactive
CCC(C)n1c(-c2cccs2)nc2nc3ccccc3nc21 (stereo unspecified)	inactive
CCC(=O)N(CCC1(C(C)C)CCOC(C)(C)C1)Cc1ccco1 (stereo unspecified)	inactive
CN(C)c1ccc(/C=C/C(=O)c2ccc3c(c2)OCO3)cc1	inactive
Cc1cccc2cc(CN(CC3CCCO3)C(=O)NC3CCCCC3)c(=O)[nH]c12 (stereo unspecified)	inactive
COCc1cc(C)nc(SCC(=O)Nc2cccc3cccnc23)c1C#N	inactive
O=C(NCc1ccccn1)c1ccc(Cn2c(=S)[nH]c3ccc(Br)cc3c2=O)cc1	inactive
CCOC(=O)c1nc(Nc2ccc(C(=O)OC)cc2)c2ccccc2n1	inactive
NCCCCCC(=O)Nc1ccncc1	inactive
CC(C)OC(=O)c1cn(-c2ccccc2)nc1-c1ccc2c(c1)OCCO2	inactive
